Literature values in patent publication US7067315B2, “Identification of anti-protozoal agents” (President and Fellows of Harvard College, priority 2001, dated 2006).

Tested on: Apicomplexan parasites
Settings: several Apicomplexan parasites; by net actin filament depolymerization

C=C1[C@@H](C)[C@H]2[C@H](Cc3ccccc3)NC(=O)[C@]23[C@H](OC(C)=O)/C=C/[C@@](C)(O)C(=O)[C@@H](C)C/C=C/[C@H]3[C@@H]1O [cytochalsin D]
inhibition of parasite motility and invasion: inhibits parasite motility and invasion
